Reference: US8063048B2, “Acetylenyl-pyrazolo-pyrimidine derivatives” (Hoffmann-La Roche Inc., priority 2005, dated 2011)

Assays:
mGlu2 receptor = target: T1, mGlu2 receptor (Rattus norvegicus, UniProt P31421); test: [3H]-LY354740 binding on mGlu2 transfected CHO cell membranes; conditions: inhibition of 10 nM [3H]-LY354740 binding, membranes of CHO cells transfected with rat mGlu2, room temperature, 1 hour
T1 construct: expressed in transfected cells; membranes prepared
Description: [^3H]-LY354740 Binding on mGlu2 Transfected CHO Cell Membranes. Transfection and Cell Culture
cDNA encoding the rat mGlu2 receptor protein in pBluescript II was subcloned into the eukaryotic expression vector pcDNA I-amp from Invitrogen Ltd (Paisley, UK). This vector construct (pcD1mGR^2) was co-transfected with a psvNeo plasmid encoding the gene for neomycin resistance, into CHO cells by a modified calcium phosphate method described by Chen & Okayama (1988). The cells were maintained in Dulbecco's Modified Eagle medium with reduced L-glutamine (2 mM final concentration) and 10% dialyzed fetal calf serum from Gibco-Invitrogen (Carlsbad, Calif., USA). Selection was made in the presence of G-418 (1000 ug/mL final) and MCPG[…]. Clones were identified by reverse transcription of 5 μg total RNA, followed by PCR using mGlu2 receptor specific primers 5′-[…]-3′ and 5′-[…]-3′ in 60 mM Tris HCl (pH 10), 15 mM (NH4)2SO4, 2 mM MgCl2, 25 units/mLTaq Polymerase with 30 cycles annealing at 60° C. for 1 min., extention at 72° C. for 30 s, and 1 min. 95° C. denaturation.
Cells, cultured as above, were harvested and washed three times with cold PBS and frozen at −80° C. The pellet was resuspended in cold 20 mM HEPES-NaOH buffer containing 10 mM EDTA (pH 7.4) and homogenized with a polytron (Kinematica, AG, Littau, Switzerland) for 10 s at 10 000 rpm. After centrifugation for 30 min. at 4° C., the pellet was washed once with the same buffer, and once with cold 20 mM HEPES-NaOH buffer containing 0.1 mM EDTA, (pH 7.4). Protein content was measured using the micro BCA method from Pierce-Perbio (Rockford, Ill., USA) using bovine serum albumin as standard.
After thawing, the membranes were resuspended in cold 50 mM Tris-HCl buffer containing 2 mM MgCl2 (pH 7) (binding buffer). The final concentration of the membranes in the assays was 25 μg protein/ml. Inhibition experiments were performed with membranes incubated with 10 nM [^3H]-LY354740 at room temperature, for 1 hour, in presence of various concentrations of the compound to be tested. Following the incubations, membranes were filtered onto Whatmann GF/B glass fiber filters and washed 5 times with cold binding buffer. Non specific binding was measured in the presence of 10 μM DCG IV. After transfer of the filters into plastic vials containing 10 mL of Ultima-gold scintillation fluid from Perkin-Elmer (Boston, Mass., USA), the radioactivity was measured by liquid scintillation in a Tri-Carb 2500 TR counter (Packard, Zürich, Switzerland).
The inhibition curves were fitted with a four parameter logistic equation giving IC50 values, and Hill coefficients.

T1 sequence (P31421 19-872): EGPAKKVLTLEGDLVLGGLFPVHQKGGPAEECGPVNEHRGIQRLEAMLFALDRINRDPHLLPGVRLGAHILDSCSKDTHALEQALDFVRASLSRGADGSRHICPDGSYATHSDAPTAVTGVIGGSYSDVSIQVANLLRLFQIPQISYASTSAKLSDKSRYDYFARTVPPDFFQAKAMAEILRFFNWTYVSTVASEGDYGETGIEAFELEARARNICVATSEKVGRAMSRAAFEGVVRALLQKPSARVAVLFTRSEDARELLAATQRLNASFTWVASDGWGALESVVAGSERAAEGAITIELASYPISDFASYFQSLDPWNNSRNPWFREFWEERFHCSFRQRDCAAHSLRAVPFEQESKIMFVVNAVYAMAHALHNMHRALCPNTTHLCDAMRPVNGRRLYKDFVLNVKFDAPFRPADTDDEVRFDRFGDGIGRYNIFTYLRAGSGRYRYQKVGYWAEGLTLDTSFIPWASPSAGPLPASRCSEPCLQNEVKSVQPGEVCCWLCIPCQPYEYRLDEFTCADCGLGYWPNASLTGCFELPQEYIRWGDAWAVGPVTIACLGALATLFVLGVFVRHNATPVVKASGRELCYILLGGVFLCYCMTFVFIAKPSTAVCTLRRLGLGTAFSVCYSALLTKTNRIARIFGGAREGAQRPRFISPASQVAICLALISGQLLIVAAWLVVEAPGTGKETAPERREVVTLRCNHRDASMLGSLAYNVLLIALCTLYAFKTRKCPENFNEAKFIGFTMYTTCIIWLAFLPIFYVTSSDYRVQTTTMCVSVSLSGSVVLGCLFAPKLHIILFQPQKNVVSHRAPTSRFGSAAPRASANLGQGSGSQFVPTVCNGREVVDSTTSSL

| melting point | Ki (mGlu2 receptor) | SMILES |
| --- | --- | --- |
| 306 to 307 °C | 9 nM | NS(=O)(=O)c1cc(C#Cc2cnc3c(C(F)(F)F)cc(-c4ccc(C(F)(F)F)cc4)cn23)c(F)cc1F [Example 180, 2,4-Difluoro-5-[8-trifluoromethyl-6-(4-trifluoromethyl-phenyl)-imidazo[1,2-a]pyridin-3-ylethynyl]-benzenesulfonamide] |
| 290 °C | 8 nM | NS(=O)(=O)c1ccc(C#Cc2ncn3c(C(F)(F)F)cc(-c4ccc(C(F)(F)F)cc4)nc23)cc1 [Example 178, 4-[4-Trifluoromethyl-2-(4-trifluoromethyl-phenyl)-imidazo[1,5-a]pyrimidin-8-ylethynyl]-benzenesulfonamide] |
| 213 to 214 °C | 3 nM | NS(=O)(=O)c1ccc(C#Cc2cnn3c(C4CC4)cc(-c4ccc(Cl)c(Cl)c4)nc23)s1 [Example 86, 5-[7-Cyclopropyl-5-(3,4-dichloro-phenyl)-pyrazolo[1,5-a]pyrimidin-3-ylethynyl]-thiophene-2-sulfonic acid amide] |
| 255 °C | 1 nM | NS(=O)(=O)c1ccc(C#Cc2ncn3c(C(F)(F)F)cc(-c4ccc(C(F)(F)F)cc4)nc23)s1 [Example 179, 5-[4-Trifluoromethyl-2-(4-trifluoromethyl-phenyl)-imidazo[1,5-a]pyrimidin-8-ylethynyl]-thiophene-2-sulfonic acid amide] |
| 243 °C | 2 nM | NS(=O)(=O)c1cccc(C#Cc2cnn3c(C(F)(F)F)cc(-c4ccc(C(F)(F)F)cc4)nc23)c1 [Example 1, 3-[7-Trifluoromethyl-5-(4-trifluoromethyl-phenyl)-pyrazolo[1,5-a]pyrimidin-3-ylethynyl]-benzenesulfonamide] |
| 250 °C | 8 nM | CN1CCN(S(=O)(=O)c2ccc(C#Cc3cnn4c(C(F)(F)F)cc(-c5ccc(C(F)(F)F)cc5)nc34)s2)CC1 [Example 157, 3-[5-(4-Methyl-piperazine-1-sulfonyl)-thiophen-2-ylethynyl]-7-trifluoromethyl-5-(4-trifluoromethyl-phenyl)-pyrazolo[1,5-a]pyrimidine] |
|  | 4 nM | CC(CO)(CO)NS(=O)(=O)c1cncc(C#Cc2cnn3c(C(F)(F)F)cc(-c4ccc(Cl)c(Cl)c4)nc23)c1 [Example 91, 5-[5-(3,4-Dichloro-phenyl)-7-trifluoromethyl-pyrazolo[1,5-a]pyrimidin-3-ylethynyl]-pyridine-3-sulfonic acid (2-hydroxy-1-hydroxymethyl-1-methyl-ethyl)-amide] |
| 216 to 218 °C |  | Cc1nc(C#Cc2cnn3c(C(F)(F)F)cc(-c4ccc(C(F)(F)F)cc4)nc23)sc1S(=O)(=O)NC(C)(C)CO [Example 53, 4-Methyl-2-[7-trifluoromethyl-5-(4-trifluoromethyl-phenyl)-pyrazolo[1,5-a]pyrimidin-3-ylethynyl]-thiazole-5-sulfonic acid (2-hydroxy-1,1-dimethyl-ethyl)-amide] |
| 229 °C |  | Cc1cc(-c2cc(C(F)(F)F)n3ncc(C#Cc4ccc(S(=O)(=O)N5CCN(C)CC5)s4)c3n2)ccc1Cl [Example 258, 5-(4-Chloro-3-methyl-phenyl)-3-[5-(4-methyl-piperazine-1-sulfonyl)-thiophen-2-ylethynyl]-7-trifluoromethyl-pyrazolo[1,5-a]pyrimidine] |
| 302 °C |  | CC(=O)Nc1ncc(C#Cc2cnn3c(C(F)(F)F)cc(-c4ccc(C(F)(F)F)cc4)nc23)s1 [Example 291, N-{5-[7-Trifluoromethyl-5-(4-trifluoromethyl-phenyl)-pyrazolo[1,5-a]pyrimidin-3-ylethynyl]-thiazol-2-yl}-acetamide] |
| 218 to 220 °C |  | NS(=O)(=O)c1cccc(C#Cc2cnn3c(C(F)(F)F)cc(-c4ccc(Cl)cc4)nc23)c1 [Example 98, 3-[5-(4-Chloro-phenyl)-7-trifluoromethyl-pyrazolo[1,5-a]pyrimidin-3-ylethynyl]-benzenesulfonamide] |
| 252 to 253 °C |  | CC(C)(CO)NS(=O)(=O)c1cnc(C#Cc2cnn3c(C(F)(F)F)cc(-c4ccc(C(F)(F)F)cc4)nc23)s1 [Example 23, 2-[7-Trifluoromethyl-5-(4-trifluoromethyl-phenyl)-pyrazolo[1,5-a]pyrimidin-3-ylethynyl]-thiazole-5-sulfonic acid (2-hydroxy-1,1-dimethyl-ethyl)-amide] |
| 141 °C |  | O=S(=O)(NCc1ccncc1)c1ccc(C#Cc2cnn3c(C(F)F)cc(-c4ccc(C(F)(F)F)cc4)nc23)s1 [Example 277, 5-[7-Difluoromethyl-5-(4-trifluoromethyl-phenyl)-pyrazolo[1,5-a]pyrimidin-3-ylethynyl]-thiophene-2-sulfonic acid (pyridin-4-ylmethyl)-amide] |
| 260 to 262 °C |  | Nc1ccc(C#Cc2cnc3c(C(F)(F)F)cc(-c4ccc(C(F)(F)F)cc4)cn23)cn1 [Example 191, 5-[8-Trifluoromethyl-6-(4-trifluoromethyl-phenyl)-imidazo[1,2-a]pyridin-3-ylethynyl]-pyridin-2-ylamine] |
| 276 to 277 °C |  | NC(=O)c1ccc(C#Cc2cnn3c(C(F)F)cc(-c4ccc(C(F)(F)F)cc4)nc23)cn1 [Example 206, 5-[7-Difluoromethyl-5-(4-trifluoromethyl-phenyl)-pyrazolo[1,5-a]pyrimidin-3-ylethynyl]-pyridine-2-carboxylic acid amide] |
| 234 °C |  | Cc1cc(-c2cc(C(F)(F)F)n3ncc(C#Cc4cccc(S(N)(=O)=O)c4)c3n2)ccc1Cl [Example 112, 3-[5-(4-Chloro-3-methyl-phenyl)-7-trifluoromethyl-pyrazolo[1,5-a]pyrimidin-3-ylethynyl]-benzenesulfonamide] |
| 192 to 200 °C |  | CC(C)(C)NS(=O)(=O)c1cccc(C#Cc2cnn3c(C(F)(F)F)cc(-c4ccc(C(F)(F)F)cc4)nc23)c1 [Example 24, N-tert-Butyl-3-[7-trifluoromethyl-5-(4-trifluoromethyl-phenyl)-pyrazolo[1,5-a]pyrimidin-3-ylethynyl]-benzenesulfonamide] |
